Tests used:
c-jun = c-jun phosphorylation (Ser63) and total c-jun, Western blot; type: cell-based, rat; conditions: LK + 1 uM GW5074, 1 and 3 hours
Procedure: In granule neurons, phosphorylation of c-jun occurs within 1 hour of LK treatment (Ham et al., 1995; Watson et al. 1998). […] The same blot was reprobed with an antibody against total c-jun (lower panel).
For whole-cell lysates, the culture medium was discarded, the neurons washed twice with ice-cold phosphate-buffered saline (PBS), and lysed in lysis buffer (1% Triton, 20 mM Tris-HCl (pH 7.5), 150 mM NaCl, 1 mM Na2EDTA, 1 mM EGTA, 2.5 mM sodium pyrophosphate, 1 mM beta-glycerophosphate, 1 mM Na3VO4, 1 μg/ml leupeptin and 1× protease inhibitor mixture). Protein concentrations were measured using a Bradford protein assay kit (Bio-Rad), and equivalent amounts of protein were mixed with 6×SDS-PAGE sample buffer. Following heating at 95° C. for 5 min, proteins were subjected to SDS-polyacrylamide gel electrophoresis and transferred electrophoretically to polyvinylidene difluoride membrane (PVDF; Bio Rad). After staining with Ponceau S to verify uniformity of protein loads/transfer, the membranes were analyzed for immunoreactivity. Incubation with primary antibodies was performed overnight at 4° C. and with secondary antibodies for 1 h at room temperature. Immunoreactivity was developed by enhanced chemiluminescence (ECL; Amersham) and visualized by autoradiography. All antibodies were from Cell Signaling.

C-Raf = biological target: T1, C-Raf (Rattus norvegicus, UniProt P11345); assay: C-Raf Ser259 phosphorylation in neuronal cultures, Western blot; type: cell-based; conditions: LK + 1 uM GW5074, 0-30 min
T1 construct: Activities of endogenous C-Raf and B-Raf activity was assayed by measuring the ability of kinase immunoprecipitated from neuronal lysates; endogenous in cells; host or cells: primary rat cerebellar granule neurons
T1 sequence (P11345 whole entry): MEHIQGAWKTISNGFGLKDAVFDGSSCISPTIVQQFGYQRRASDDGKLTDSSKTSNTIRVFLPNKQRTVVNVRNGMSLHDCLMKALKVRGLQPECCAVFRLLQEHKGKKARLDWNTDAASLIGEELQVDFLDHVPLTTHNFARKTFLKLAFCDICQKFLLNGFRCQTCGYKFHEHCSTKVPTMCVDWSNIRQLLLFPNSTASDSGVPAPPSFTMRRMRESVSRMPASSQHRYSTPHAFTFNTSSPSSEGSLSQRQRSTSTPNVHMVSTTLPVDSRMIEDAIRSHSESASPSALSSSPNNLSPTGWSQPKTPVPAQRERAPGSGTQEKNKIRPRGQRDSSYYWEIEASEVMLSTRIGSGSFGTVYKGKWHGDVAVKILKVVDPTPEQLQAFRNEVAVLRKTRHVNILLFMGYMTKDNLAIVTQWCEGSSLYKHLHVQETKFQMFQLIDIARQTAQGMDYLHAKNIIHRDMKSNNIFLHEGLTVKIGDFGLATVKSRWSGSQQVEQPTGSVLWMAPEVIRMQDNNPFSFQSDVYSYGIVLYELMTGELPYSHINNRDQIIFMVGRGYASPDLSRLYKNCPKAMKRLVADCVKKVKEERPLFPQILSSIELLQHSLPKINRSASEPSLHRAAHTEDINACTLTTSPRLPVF
Excerpt: The cultures were lysed and the lysate subjected to Western blot analysis using a phopho-Ser259-specific antibody.

c-src = c-src (Homo sapiens, UniProt P12931); conditions: Lackey et al., 2000; cited from earlier work
Chain of c-src (P12931 whole entry, species assumed): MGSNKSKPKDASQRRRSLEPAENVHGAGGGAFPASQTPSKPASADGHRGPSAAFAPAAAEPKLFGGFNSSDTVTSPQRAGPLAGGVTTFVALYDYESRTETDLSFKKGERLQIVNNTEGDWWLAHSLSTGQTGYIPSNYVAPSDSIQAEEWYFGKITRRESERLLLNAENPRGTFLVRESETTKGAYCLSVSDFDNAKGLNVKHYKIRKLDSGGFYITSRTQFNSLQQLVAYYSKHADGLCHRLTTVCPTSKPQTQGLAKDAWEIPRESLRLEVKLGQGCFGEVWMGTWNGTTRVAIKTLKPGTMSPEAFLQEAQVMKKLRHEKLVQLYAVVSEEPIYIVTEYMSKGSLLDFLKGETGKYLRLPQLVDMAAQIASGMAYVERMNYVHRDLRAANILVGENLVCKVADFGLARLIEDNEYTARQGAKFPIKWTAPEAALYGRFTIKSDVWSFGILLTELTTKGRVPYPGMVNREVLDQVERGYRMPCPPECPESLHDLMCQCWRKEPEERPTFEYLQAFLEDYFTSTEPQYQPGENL

NF-κB = NF-κB DNA-binding activity, gel mobility shift assay; type: cell-based, rat; conditions: LK + 1 uM GW5074, 6 hours
Procedure: Another molecule known to be important for neuronal survival is NF-κB. Although the precise mechanism has not been elucidated, the Raf is known to activate NF-κB in normeuronal cells via a MEK-ERK-independent mechanism (Foo and Nolan, 1999; Pearson et al., 2000). […] Viability was quantified 24 hours later and expressed as percentage of viability in HK.
One potential mediator of MEK-ERK-independent B-Raf signaling is NF-κB.
Nuclei from neuronal cultures were resuspended in buffer containing 20 mM HEPES pH 7.6, 50 mM KCl, 300 mM NaCl, 0.1 mM EDTA, 1 mM DTT, 0.1 mM PMSF, 10% glycerol, 1× protease inhibitor cocktail and extracted on ice for 30 min, followed by micro-centrifugation at 14,000 rpm for 10 min. The supernatants were collected as nuclear extracts. Concentrations of these nuclear extracts were determined by the Bradford method using reagents from Bio-Rad. Ten μg of each nuclear extract sample was incubated with 0.1 pmol of ^32P-labeled double-stranded KB binding oligonucleotide (5′-[…]-3′) identified as SEQ ID NO:1, or SP1 binding oligonucleotide (5′-[…]-3′) identified as SEQ ID NO:2, in buffer containing 1 μg of poly (d1-dC), 1 μg of BSA, 10 mM HEPES pH7.6, 0.5 mM DTT, 0.1 mM EDTA, 60 mM KCl, 0.2 mM PMSF, 5 mM MgCl2, and 12% glycerol at room temperature for 30 min. Samples were analyzed by 5% native polyacrylamide gel electrophoresis (PAGE) followed by autoradiography.

[1] = test system: cerebellar granule neurons; assay: LK-induced apoptosis of cultured cerebellar granule neurons (MTT viability); type: cell-based, rat
Procedure: Cultured cerebellar granule neurons undergo apoptosis when switched from HK to medium containing LK (D'Mello et al., 1993). […] Neuronal cultures were switched to medium containing LK, or LK medium containing different doses of GW5074. Cell viability was quantified 24 hours later. Control cultures received HK medium. […] Protection against LK-induced apoptosis is maximal at 1 uM.
Granule neuron cultures were obtained from dissociated cerebella of 7-8 day old rats as described previously (D'Mello et al., 1993). Cells were plated in Basal Eagle's Medium with Earles salts (BME) supplemented with 10% fetal bovine serum (FBS), 25 mM KCl, 2 mM glutamine (Gibco-BRL), and 100 ug/ml gentamycin on dishes coated with poly-L-lys ine in 24-well dishes at a density 1.0×10^6 cells/well, 1.2×10^7 cells/60 mm dish, or 3.0×10^7 cells/100 mm dish. Cytosine arabinofuranoside (10 uM) was added to the culture medium 18-22 hours after plating to prevent replication of non-neuronal cells. Cultures were maintained for 6-7 days prior to experimental treatments. For this, the cells were rinsed once and then maintained in low K^+ medium (serum-free BME medium, 5 mM KCl) or high K^+ medium (serum-free BME medium, supplemented with 20 mM KCl). When used to treat cultures, GW5074 was added at the time when cells were switched to LK medium. Treatment of cultures with pharmacological inhibitors was initiated 15 min prior to rinsing and was maintained through the subsequent incubation in LK or HK medium unless specified otherwise. For MPP+ and methylmercury treatments, 7-8 day old cultures were switched to HK medium containing 200 uM MPP+ or 0.5 uM methylmercury. Viability was assayed 24 hours later.
Neuronal survival was quantified by the MTT assay as previously described (Koulich et al., 2001). Briefly, the tetrazolium salt MTT [3-(4,5-dimethyl-2-thiazolyl)-2,5-diphenyl-2H tetrazolium bromide] was added to the cultures at a final concentration of 1 mg/ml, and incubation of the culture was continued in the CO2 incubator for a further 30 min at 37° C. The assay was stopped by adding lysis buffer [20% SDS in 50% N,N-dimethyl formamide, pH 4.7]. The absorbance was measured specrophotometrically at 570 nm after an overnight incubation at room temperature. The absorbance of a well without cells was used as background and subtracted. Results obtained using the MTT assays were confirmed using the fluorescein-diacetate method for quantification of cell viability, as previously described (D'Mello et al., 1993). Data are presented as mean+/−standard deviation. Statistical analysis was performed using ANOVA and Student-Neuman-Keuls' test.

O=C1Nc2ccc(I)cc2C1=Cc1cc(Br)c(O)c(Br)c1 [GW5074, 5-Iodo-3-[(3,5-dibromo-4-hydroxyphenyl)methylene]-2-indolinone]
LK-induced c-jun phosphorylation and synthesis (c-jun): prevents LK-induced c-jun phosphorylation and its increased synthesis
phosphorylation of C-Raf at Ser259 (C-Raf): rapid increase in Ser259 phosphorylation
effect on activity of c-src (c-src): no effect
NF-κB binding activity in LK (NF-κB): downregulation of NF-κB binding activity is prevented
neuroprotection against LK-induced apoptosis ([1]; 5 uM and 10 uM): Neuroprotection by GW5074 is also observed
protection against LK-induced apoptosis ([1]; LK + 1 uM GW5074, 24 hours): prevents LK-induced apoptosis
concentration of maximal protection against LK-induced apoptosis ([1]; viability 24 hours after switch to LK): 1 µM

Source: patent US20050250837A1, “Use of C-Raf inhibitors for the treatment of neurodegenerative diseases” (priority 2002, published 2005)
